Experimental data from ChEMBL document CHEMBL4152229, “Synthesis and biological evaluation of 2,6-disubstituted-9H-purine, 2,4-disubstitued-thieno[3,2-d]pyrimidine and -7H-pyrrolo[2,3-d]pyrimidine analogues as novel CHK1 inhibitors” (Eur J Med Chem, 2018).
pIC50: −log10 of the molar value.

Assays:
HT-29 [1] = assay: cells; conditions: Homo sapiens, HT-29, 72 h
Description: Antiproliferative activity against human HT-29 cells after 72 hrs by MTS assay

[2] = molecular target: T1, Serine/threonine-protein kinase Chk1 (Homo sapiens) (UniProt O14757); assay: Inhibition of CHK1 (unknown origin) at 10 uM using Cdc25 peptide as substrate preincubated for 30 mins followed by substrate addition and measured after 60 mins by ADP-Glo kinase assay
T1 sequence (whole entry): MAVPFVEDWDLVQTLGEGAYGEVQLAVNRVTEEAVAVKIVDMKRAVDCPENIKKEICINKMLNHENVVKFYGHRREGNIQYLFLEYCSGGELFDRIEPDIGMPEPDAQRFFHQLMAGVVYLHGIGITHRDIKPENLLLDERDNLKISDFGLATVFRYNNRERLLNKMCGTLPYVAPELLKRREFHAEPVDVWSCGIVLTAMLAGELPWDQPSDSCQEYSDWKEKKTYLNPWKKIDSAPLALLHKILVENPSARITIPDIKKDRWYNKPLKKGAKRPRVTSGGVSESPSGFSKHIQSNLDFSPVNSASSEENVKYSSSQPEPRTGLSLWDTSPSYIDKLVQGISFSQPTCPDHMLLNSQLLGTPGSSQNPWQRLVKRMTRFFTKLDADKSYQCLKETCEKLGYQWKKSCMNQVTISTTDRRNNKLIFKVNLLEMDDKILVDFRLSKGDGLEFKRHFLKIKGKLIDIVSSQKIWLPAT

HEK293 = assay: Antiproliferative activity against human HEK293 cells after 72 hrs by MTS assay; format: functional; conditions: HEK293, 72 h
[3] = molecular target: T2, Serine/threonine-protein kinase Chk1 (Homo sapiens, UniProt O14757); assay: Inhibition of CHK1 (unknown origin) using Cdc25 peptide as substrate preincubated for 30 mins followed by substrate addition and measured after 60 mins by ADP-Glo kinase assay
T2 sequence (O14757 whole entry): T1 sequence (whole entry)

HT-29 [4] = assay: Cell cycle arrest in human HT-29 cells assessed as accumulation at G1 phase at 25 nM after 48 hrs by propidium iodide/RNase staining-based flow cytometric analysis (reference value: 62.1%); format: functional
HT-29 [5] = assay: Cell cycle arrest in human HT-29 cells assessed as accumulation at S phase at 25 nM after 48 hrs by propidium iodide/RNase staining-based flow cytometric analysis (reference value: 30.9%); format: functional
HT-29 [6] = assay: Cell cycle arrest in human HT-29 cells assessed as accumulation at G2 phase at 25 nM after 48 hrs by propidium iodide/RNase staining-based flow cytometric analysis (reference value: 7.0%); format: functional

Structure (SMILES) | GI50 (HT-29 [1]) | inhibition [2] | GI50 (HEK293) | pIC50 [3] | Activity (HT-29 [4]) | Activity (HT-29 [5]) | Activity (HT-29 [6])
COc1ccccc1Nc1nc(N2CCOCC2)c2nc[nH]c2n1 | > 100 µM | 3.8% | > 100 µM | – | – | – | –
c1cnc(Nc2nc(N3CCOCC3)c3nc[nH]c3n2)cn1 | > 100 µM | 38.2% | 27.2 µM | – | – | – | –
c1ccc2ncc(Nc3nc(N4CCOCC4)c4nc[nH]c4n3)cc2c1 | 25.1 µM | 63.1% | 22.3 µM | – | – | – | –
c1ccc(Nc2nc(N3CCOCC3)c3nc[nH]c3n2)cc1 | > 100 µM | 82.4% | 60.2 µM | 5.59 | – | – | –
NC(=O)Nc1cc(-c2cccc(F)c2)sc1C(=O)N[C@H]1CCCNC1 [AZD-7762] | 0.167 µM | – | 0.236 µM | – | – | – | –
Clc1cccc(Nc2nc(N3CCOCC3)c3nc[nH]c3n2)c1 | 34.8 µM | 77.3% | 38.4 µM | 5.55 | – | – | –
FC(F)(F)Oc1cccc(Nc2nc(N3CCOCC3)c3nc[nH]c3n2)c1 | > 100 µM | 31.6% | > 100 µM | – | – | – | –
COc1cc(Nc2nc(N3CCOCC3)c3nc[nH]c3n2)cc(OC)c1OC | > 100 µM | 35.8% | > 100 µM | – | – | – | –
COc1cc(Nc2nc(N3CCOCC3)c3sccc3n2)cc(OC)c1OC | 31.6 µM | – | > 100 µM | – | – | – | –
COc1ccc(Nc2nc(N3CCOCC3)c3sccc3n2)cc1 | 29.7 µM | – | > 100 µM | – | – | – | –
c1ccc(Nc2nc(N3CCOCC3)c3cc[nH]c3n2)cc1 | 58.3 µM | 44.5% | 64.7 µM | – | – | – | –
NC(=O)c1ccc(Nc2nc(N3CCOCC3)c3nc[nH]c3n2)cn1 | 72.2 µM | 80.3% | 72.2 µM | 5.01 | – | – | –
Nc1ccn([C@@H]2O[C@H](CO)[C@@H](O)C2(F)F)c(=O)n1 [GEMCITABINE] | – | – | – | – | 4.3% | 10.5% | 85.2%
O=C(Nc1cccc(Nc2nc(N3CCOCC3)c3nc[nH]c3n2)c1)C(F)(F)F | 58 µM | 50% | 73.6 µM | – | – | – | –
FC(F)(F)c1cccc(Nc2nc(N3CCOCC3)c3nc[nH]c3n2)c1 | 29.1 µM | 61.3% | 31.4 µM | – | – | – | –
Fc1cccc(Nc2nc(N3CCOCC3)c3nc[nH]c3n2)c1 | 60.8 µM | 92% | 33.7 µM | 5.44 | – | – | –
COc1ccc(Nc2nc(N3CCOCC3)c3cc[nH]c3n2)cc1 | 38.4 µM | 16.7% | 63.6 µM | – | – | – | –
c1ccc(Nc2nc(N3CCOCC3)c3sccc3n2)cc1 | 54.5 µM | – | > 100 µM | – | – | – | –
Fc1ccc(Nc2nc(NC3CCOCC3)c3nc[nH]c3n2)cc1 | 86.9 µM | 37.2% | > 100 µM | – | – | – | –
COc1cc(Nc2nc(N3CCOCC3)c3cc[nH]c3n2)cc(OC)c1OC | 50.4 µM | 26.9% | 58.7 µM | – | – | – | –
c1ccc(Nc2nc(NC3CCOCC3)c3nc[nH]c3n2)cc1 | 80.3 µM | 61.5% | 31.5 µM | – | – | – | –
c1cncc(Nc2nc(N3CCOCC3)c3nc[nH]c3n2)c1 | > 100 µM | 82.2% | 33.7 µM | 5.09 | – | – | –
N#Cc1cnc(Nc2cc(NC[C@H]3CNCCO3)c(C(F)(F)F)cn2)cn1 [SRA-737] | 9.22 µM | – | 1.39 µM | – | – | – | –
COc1cccc(Nc2nc(N3CCOCC3)c3nc[nH]c3n2)c1 | 72.6 µM | 84.9% | 38.7 µM | 5.44 | – | – | –
Cc1cccc(Nc2nc(N3CCOCC3)c3nc[nH]c3n2)c1 | 67.6 µM | 85.2% | 40.5 µM | 5.90 | – | – | –
COc1ccc(Nc2nc(N3CCOCC3)c3nc[nH]c3n2)cc1 | 74.5 µM | 51% | > 100 µM | – | – | – | –
